This passage reports IC50 results from patent publication US12692261B2, “Substituted heterocyclic compounds and therapeutic uses thereof” (Bayer Aktiengesellschaft, priority 2020, dated 2026).

Where two headings read alike, the source gives them in different places.

The target in test [1] is T1, full-length human CSNK1D (Homo sapiens, UniProt P48730).
T1 construct: N-terminal Glutathion-S-Transferase (GST) and full-length human CSNK1D; purchased Life Technologies PV3665; host or cells: baculovirus infected insect cells
T1 sequence (P48730 whole entry): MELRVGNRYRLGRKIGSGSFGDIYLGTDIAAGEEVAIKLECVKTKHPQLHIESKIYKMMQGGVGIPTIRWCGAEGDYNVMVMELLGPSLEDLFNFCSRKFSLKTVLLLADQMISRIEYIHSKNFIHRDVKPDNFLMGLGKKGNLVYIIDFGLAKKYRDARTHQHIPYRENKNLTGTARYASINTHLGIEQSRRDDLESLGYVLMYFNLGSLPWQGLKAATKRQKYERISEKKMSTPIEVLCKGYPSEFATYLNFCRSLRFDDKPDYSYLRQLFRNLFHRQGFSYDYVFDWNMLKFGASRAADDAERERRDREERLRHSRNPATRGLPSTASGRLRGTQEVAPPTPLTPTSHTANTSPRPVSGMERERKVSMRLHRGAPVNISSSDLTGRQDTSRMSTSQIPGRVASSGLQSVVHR
Put plainly: CSNK1D Assay (ADP-Glo, 1 μM ATP). Type of test: biochemical. As to conditions: Table 3, read-out: CSNK1D IC50 [mol/l] (median). The procedure, abridged:
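Enzyme is N-terminal GST-tagged full-length human CSNK1D from baculovirus-infected insect cells (typically about 0.5 ng/μL), with a biotinylated peptide substrate and 1 μM ATP. Compound pre-incubated 15 min at 22° C in HEPES pH 7.5 buffer; ADP formed is read by ADP-Glo luminescence.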
A general note: In ADP-Glo the light output rises with the ADP produced.

Test [2] addresses T2, wild-type Epidermal Growth Factor Receptor (EGFR) (Homo sapiens, UniProt P00533).
T2 construct: a fragment of human EGFR (amino acids R669 to A1210); made in house; host or cells: Sf9 insect cells
Put plainly: WT-EGFR Kinase Assay (TR-FRET, 2 mM ATP). Type of test: biochemical. The procedure, abridged:
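GST-fused human EGFR fragment (R669-A1210) from Sf9 cells, typically 7.6 pg/μL, pre-incubated with compound 15 min at 22° C in Hepes pH 7.0 buffer with MgCl2, DTT and vanadate; biotinylated peptide substrate. After EDTA stop, phosphopeptide detected by TR-FRET (anti-phosphotyrosine Tb-cryptate/streptavidin-XL665), 665/620 nm emission ratio.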
A general note: Time-resolved FRET reads energy transfer from a long-lived donor to a nearby acceptor.

[3] abbreviates: EGFR Wildtyp 2 mM ATP IC50 [mol/l] (median), Table 4.

T2 sequence (P00533 669-1210): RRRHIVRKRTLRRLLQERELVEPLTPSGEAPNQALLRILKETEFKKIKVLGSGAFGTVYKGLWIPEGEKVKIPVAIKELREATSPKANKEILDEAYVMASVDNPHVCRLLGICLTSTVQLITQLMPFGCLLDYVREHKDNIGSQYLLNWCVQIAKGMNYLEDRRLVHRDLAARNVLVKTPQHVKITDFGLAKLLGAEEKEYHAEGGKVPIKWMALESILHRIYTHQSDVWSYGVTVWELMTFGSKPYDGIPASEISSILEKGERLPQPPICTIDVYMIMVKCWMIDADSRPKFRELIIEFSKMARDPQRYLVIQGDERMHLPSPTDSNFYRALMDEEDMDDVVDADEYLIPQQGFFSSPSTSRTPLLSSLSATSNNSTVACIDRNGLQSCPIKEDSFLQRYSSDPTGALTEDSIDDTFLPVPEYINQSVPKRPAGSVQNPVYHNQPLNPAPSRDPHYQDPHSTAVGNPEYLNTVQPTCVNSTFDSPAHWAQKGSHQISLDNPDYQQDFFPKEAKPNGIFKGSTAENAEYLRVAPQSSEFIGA

Turning to `O=C(Nc1cc(-c2[nH]c3c(CC4CC4)cc(F)nc3c2-c2ccccn2)ccn1)C(CC(F)F)c1ccc(F)cc1` (single isomer, unassigned) [Example 48, (2R or S)—N-{4-[7-(cyclopropylmethyl)-5-fluoro-3-(pyridin-2-yl)-1H-pyrrolo[3,2-b]pyridin-2-yl]pyridin-2-yl}-4,4-difluoro-2-(4-fluorophenyl)butanamide], the IC50 in test [1] is 6.99 nM; in test [2] (read-out: EGFR Wildtyp 2 mM ATP IC50 [mol/l] (median), Table 4) it was over 20000 nM.
`O=C(Nc1cc(-c2[nH]c3cncnc3c2-c2ccccn2)ccn1)C(CC(F)F)c1ccc(F)cc1` (single isomer, unassigned; (-)) [Example 14, (−)-4,4-difluoro-2-(4-fluorophenyl)-N-{4-[7-(pyridin-2-yl)-5H-pyrrolo[3,2-d]pyrimidin-6-yl]pyridin-2-yl}butanamide]: the IC50 in test [1] is 28.5 nM; in test [2] (setting [3]), over 20000 nM.
In the case of `COc1ncnc2c(-c3ccccn3)c(-c3ccnc(NC(=O)C(CC(F)F)c4ccc(F)cc4)c3)[nH]c12` (stereo not shown) [Example 113, 4,4-difluoro-2-(4-fluorophenyl)-N-{4-[4-methoxy-7-(pyridin-2-yl)-5H-pyrrolo[3,2-d]pyrimidin-6-yl]pyridin-2-yl}butanamide], the results for the IC50 in test [1] and in test [2] (setting [3]) were 9.2 nM and over 20000 nM, respectively.
Take `Cc1cc(F)nc2c(-c3ccccn3)c(-c3ccnc(NC(=O)C(CC(F)F)c4ccc(F)cc4)c3)[nH]c12` (racemic) [Example 36, (rac)-4,4-difluoro-N-{4-[5-fluoro-7-methyl-3-(pyridin-2-yl)-1H-pyrrolo[3,2-b]pyridin-2-yl]pyridin-2-yl}-2-(4-fluorophenyl)butanamide]: the IC50 is 41.9 nM in test [1] and over 20000 nM in test [2] (setting [3]).
In the same order, the values of `O=C(Nc1cc(-c2[nH]c3cccnc3c2-c2ccccn2)ccn1)C(CCO)c1ccc(F)cc1` (stereo not shown) [Example 104, 2-(4-fluorophenyl)-4-hydroxy-N-(4-(3-(pyridin-2-yl)-1H-pyrrolo[3,2-b]pyridin-2-yl)pyridin-2-yl)-butanamide] are 16.3 nM and over 20000 nM.
On to `O=C(Nc1cc(-c2[nH]c3cc(F)cnc3c2-c2ccccn2)ccn1)C(CC(F)F)c1ccc(F)cc1` (single isomer, unassigned; (+)) [Example 17, (+)-4,4-difluoro-2-(4-fluorophenyl)-N-{4-[6-fluoro-3-(pyridin-2-yl)-1H-pyrrolo[3,2-b]pyridin-2-yl]pyridin-2-yl}butanamide], for which the results for the IC50 in test [1] and in test [2] (setting [3]) were 3.16 nM and over 20000 nM, respectively.
In the same order, the values of `O=C(Nc1cc(-c2[nH]c3c(OC4CC4)cc(F)nc3c2-c2ccccn2)ccn1)C(CC(F)F)c1ccc(F)cc1` (stereo not shown) [Example 45] are 40.4 nM and over 20000 nM.
`O=C(Nc1cc(-c2[nH]c3c(OC[C@H]4COCCO4)cc(F)nc3c2-c2ccccn2)ccn1)C(CC(F)F)c1ccc(F)cc1` (mixture of isomers) [Example 50, (2RS)—N-{4-[7-{[(2R)-1,4-dioxan-2-yl]methoxy}-5-fluoro-3-(pyridin-2-yl)-1H-pyrrolo[3,2-b]pyridin-2-yl]pyridin-2-yl}-4,4-difluoro-2-(4-fluorophenyl)butanamide]: the IC50 in test [1] is 9.03 nM; in test [2] (setting [3]), over 20000 nM.
